pKi: −log10 of the molar value. “And” between values parts separate entries of the source, which are not always exact repeats. Identical values can stand only once.
Target: D(2) dopamine receptor (Rattus norvegicus, UniProt P61169)
Sequence (P61169 whole entry): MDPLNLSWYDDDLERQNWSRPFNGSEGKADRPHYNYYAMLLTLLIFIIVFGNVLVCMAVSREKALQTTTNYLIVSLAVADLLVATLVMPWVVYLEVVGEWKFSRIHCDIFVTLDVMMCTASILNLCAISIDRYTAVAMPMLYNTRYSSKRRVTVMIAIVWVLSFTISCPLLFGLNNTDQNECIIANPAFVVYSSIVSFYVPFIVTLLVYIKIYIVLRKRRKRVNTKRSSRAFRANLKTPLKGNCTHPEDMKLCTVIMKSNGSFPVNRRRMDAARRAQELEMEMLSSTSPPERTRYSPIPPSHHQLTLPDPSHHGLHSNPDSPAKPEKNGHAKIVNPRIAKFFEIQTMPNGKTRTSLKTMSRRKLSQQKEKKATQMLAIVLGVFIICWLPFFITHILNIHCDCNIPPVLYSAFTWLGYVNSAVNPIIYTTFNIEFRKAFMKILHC

pKi: 7.70 and 7.74 and 8.01
Compound: Cc1cccc(N2CCN(CCCOc3ccc4ccc(=O)[nH]c4c3)CC2)c1C [NSC_163839]

Source: BindingDB's records for PubMed 7616416 (Third Tokushima Institute of New Drug Research, 1995)
